Experimental data as given in PubChem BioAssay (NCI).
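Compound exposure: 48 hours, 5 concentrations, 96-well plates. TGI is the concentration that stops growth completely.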

Tests used:
Test in all cases: NCI-60 cell line screen, 48 h
786-0 renal = tested on: 786-0 renal
A549 NSCLC = tested on: A549 NSCLC
ACHN renal = tested on: ACHN renal
DLD-1 colon = tested on: DLD-1 colon
DMS 114 small cell lung = tested on: DMS 114 small cell lung
DMS 273 small cell lung = tested on: DMS 273 small cell lung
HCC-2998 colon = tested on: HCC-2998 colon
HCT-15 colon = tested on: HCT-15 colon
HL-60(TB) leukemia = tested on: HL-60(TB) leukemia
HOP-18 NSCLC = tested on: HOP-18 NSCLC
HT29 colon = tested on: HT29 colon
IGROV1 ovarian = tested on: IGROV1 ovarian
LOX IMVI melanoma = tested on: LOX IMVI melanoma
LXFL 529 NSCLC = tested on: LXFL 529 NSCLC
M14 melanoma = tested on: M14 melanoma
MALME-3M melanoma = tested on: MALME-3M melanoma
NCI-H226 lung = tested on: NCI-H226 lung
NCI-H23 lung = tested on: NCI-H23 lung
NCI-H460 lung = tested on: NCI-H460 lung
NCI-H522 lung = tested on: NCI-H522 lung
OVCAR-3 ovarian = tested on: OVCAR-3 ovarian
OVCAR-4 ovarian = tested on: OVCAR-4 ovarian
OVCAR-5 ovarian = tested on: OVCAR-5 ovarian
OVCAR-8 ovarian = tested on: OVCAR-8 ovarian
RPMI-8226 leukemia = tested on: RPMI-8226 leukemia
RXF 393 renal = tested on: RXF 393 renal
SF-295 CNS = tested on: SF-295 CNS
SF-539 CNS = tested on: SF-539 CNS
SK-MEL-2 melanoma = tested on: SK-MEL-2 melanoma
SK-MEL-28 melanoma = tested on: SK-MEL-28 melanoma
SK-MEL-5 melanoma = tested on: SK-MEL-5 melanoma
SK-OV-3 ovarian = tested on: SK-OV-3 ovarian
SN12C renal = tested on: SN12C renal
SNB-19 CNS = tested on: SNB-19 CNS
SNB-75 CNS = tested on: SNB-75 CNS
SNB-78 CNS = tested on: SNB-78 CNS
SR leukemia = tested on: SR leukemia
SW-620 colon = tested on: SW-620 colon
TK-10 renal = tested on: TK-10 renal
U251 CNS = tested on: U251 CNS
UACC-257 melanoma = tested on: UACC-257 melanoma
UACC-62 melanoma = tested on: UACC-62 melanoma
UO-31 renal = tested on: UO-31 renal
XF 498 CNS = tested on: XF 498 CNS
CAKI-1 renal = tested on: CAKI-1 renal
CCRF-CEM leukemia = tested on: CCRF-CEM leukemia
COLO 205 colon = tested on: COLO 205 colon
EKVX NSCLC = tested on: EKVX NSCLC
HCT-116 colon = tested on: HCT-116 colon
HOP-62 NSCLC = tested on: HOP-62 NSCLC
HOP-92 NSCLC = tested on: HOP-92 NSCLC
K-562 leukemia = tested on: K-562 leukemia
KM12 colon = tested on: KM12 colon
KM20L2 colon = tested on: KM20L2 colon
M19-MEL melanoma = tested on: M19-MEL melanoma
MOLT-4 leukemia = tested on: MOLT-4 leukemia
SF-268 CNS = tested on: SF-268 CNS

Measured: TGI

CC1C[C@]2(C[C@@H](C)C(=O)O2)O[C@@H]2CC3(C)[C@@H]4CCC5C(C)(C)OC(=O)C[C@H]6OO[C@]4(CC[C@]3(C)C12)CC56O (stereo partly specified)
not listed: CAKI-1 renal | CCRF-CEM leukemia | COLO 205 colon | EKVX NSCLC | HCT-116 colon | HOP-62 NSCLC | HOP-92 NSCLC | K-562 leukemia | KM12 colon | KM20L2 colon | M19-MEL melanoma | MOLT-4 leukemia | SF-268 CNS
> 100 µM: all other assays above

COc1ccc(/C=c2/sc3n(c2=O)NC2(CCC(C)CC2)NN=3)cc1 (stereo unspecified)
not listed: HCT-15 colon | HL-60(TB) leukemia | HOP-18 NSCLC | RPMI-8226 leukemia | UACC-257 melanoma
> 100 µM: all other assays above
